The source of these data is US8906829B2, “Synergistic algicidal compositions including hydrazone derivatives and copper” (Dow AgroSciences LLC, priority 2010, dated 2014).

In assay [1] the test system is Synechocystis sp. strain 6803. As to the kind of experiment: Growth inhibition of Synechocystis by hydrazones and isolated metal-hydrazone complexes, BG-11 Cu minus medium (Example 12). In kind it is cell-based. The note with it: for inhibition of growth at 0.05 µg/mL / Complex % Inhn.: Test Concn. 0.05 μg/ml. The procedure:
In vitro toxicity assays against the cyanobacterium (blue-green alga) Synechocystis sp. strain 6803 were conducted using BG-11 medium except that copper micronutrient, normally included as CuSO4.5H2O, was omitted. The medium, termed BG-11 Cu minus, was prepared by dissolving 1.5 g NaNO3, 40 mg K2HPO4, 6 mg citric acid, 1 mg Na2EDTA and 20 mg Na2CO3 in 1 liter of milli Q water and treating the solution with 0.5 g Chelex 100 resin (Bio-Rad Analytical grade, 50-100 mesh, sodium form, cat#142-2822) by stifling at room temperature for 1 h. 900 mL were decanted and 67.5 mg MgSO4.7H2O, 32.4 mg […], 5.4 mg ferric ammonium citrate and 0.9 mL trace metal mix A5 without copper (2.86 g H3BO3, 1.81 g MnCl2.4H2O, 222 mg ZnSO4.7H2O, 390 mg Na2MoO4.2H2O and Co(NO3)2.6H2O in 1 L Milli Q water) was added. The pH was adjusted to 7.1 and the medium was filter-sterilized. Medium containing copper (BG-11 Cu plus) was prepared by adding CuCl2.2H2O to the BG-11 Cu minus medium at 0.2 μM. Test compounds were dissolved in dimethylsulfoxide (DMSO) at 2 mg/mL then appropriate dilutions in BG-11 Cu minus and BG-11 Cu plus media were prepared in sterilized microcentrifuge tubes. 100 μL aliquots were dispensed into flat-bottomed 96-well microtiter plates. Synechocystis was maintained under 24 h of light on BG-11 agar plates at 27° C. A loopful of cells was added to 50 mL of BG-11 Cu minus growth medium and the culture was incubated with shaking at 200 rpm at 27° C. for 24 h. The culture (10 to 20 mL aliquot) was centrifuged in a bench centrifuge at 2400 rpm for 2 min. The resulting cell pellet was resuspended in 5 mL sterile milli Q water (which had been treated with Chelex 100 resin using 0.5 g resin per liter of water by stirring at room temperature for 1 h), and recentrifuged. The cells were resuspended in BG-11 Cu minus medium, and the suspension adjusted to 4×10^5 spores per mL. Microtiter plates containing compounds as described above were inoculated with 100 μL of this cell suspension and the plates incubated at 27° C. for 72 h before assessing algal growth by measuring light scattering in a NepheloStar plate reader. Growth inhibition was determined by comparing growth in the presence of test compound with growth in control wells lacking test compound. Hydrazones and their isolated metal complexes were compared with respect to their in vitro activity toward C. reinhardtii and the cyanobacterium (blue-green alga) Synechocystis sp. strain 6803. Metal complexes of hydrazones were prepared by precipitation from ethanol with various metal salts at 1:1, 2:1 or 3:1 molar ratios, as described in general by Ainscough, Brodie, Dobbs, Ranford, and Waters (Inorganica Chimica Acta 1998, 267, 27-38, which is expressly incorporated by reference herein). In vitro assays against Synechocystis were conducted as described in Example 11 using BG-11 Cu minus medium. Growth inhibition was determined by comparing growth in the presence of test compound with growth in control wells lacking test compound.

Assay [2] concerns Synechocystis sp. strain 6803. The experiment in a line: Effect of copper on activity of hydrazones: in vitro growth inhibition of Synechocystis in BG-11 Cu minus / Cu plus medium (Example 11). Format: cell-based. The note with it: for inhibition of growth at 0.05 µg/mL / inhibition of growth at 0.0125 µg/mL / inhibition of growth at 0.00625 µg/mL: Synechocystis, BG-11 Cu minus medium, read-out: % Inhn. Minus Copper Observed; for inhibition of growth at 0.05 µg/mL / % Inhn. Plus Copper Observed / inhibition of growth at 0.0125 µg/mL / inhibition of growth at 0.00625 µg/mL: 72 h; for % Inhn. Plus Copper Observed: BG-11 Cu plus medium. The procedure, abridged: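 Synechocystis sp. 6803 in Chelex-treated, copper-free BG-11 (pH 7.1) or the same medium plus 0.2 μM CuCl2, inoculated from a 4×10^5/mL suspension. Growth after 72 h at 27 °C was measured by light scattering and expressed as % inhibition versus compound-free wells. Copper-plus results were compared with Colby-predicted values.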

Setting [3] is: Synechocystis, read-out: Hydrazone % Inhn.

As to `C/C(=N\NC(=O)c1ccc(C)cc1)c1cc(Cl)cc(Cl)c1O` [Compound 26], in assay [1] (setting [3]), the inhibition of growth at 0.05 µg/mL is 50%. Also, in assay [2] (Test Concn. 0.05 μg/mL), the inhibition of growth at 0.05 µg/mL is 54% and the “% Inhn. Plus Copper Observed” value stood at 95%.
`O=C(N/N=C/c1cc(Cl)cc(Cl)c1O)c1ccccc1.O=C(N/N=C/c1cc(Cl)cc(Cl)c1O)c1ccccc1.[Cl-].[Cl-].[Cu+2]` [Compound 76]: the “Complex % Inhn.” value in assay [1] stood at 96%.
As for `C/C(=N\NC(=O)c1ccc(Cl)cc1)c1cc(Cl)cc(Cl)c1O` [Compound 12], in assay [2] (Test Concn. 0.0125 μg/mL), the inhibition of growth at 0.0125 µg/mL was determined as 21% and the “% Inhn. Plus Copper Observed” value is 82%.
With `O=C(N/N=C/c1cc(Cl)cc(Cl)c1O)c1ccccc1O` [Compound 7], in assay [1] (Synechocystis, Test Concn. 0.0125 μg/ml, read-out: Hydrazone % Inhn.), the inhibition of growth at 0.0125 µg/mL was 62%. Further, in assay [2] (Test Concn. 0.05 μg/mL), the inhibition of growth at 0.05 µg/mL stood at 22% and the “% Inhn. Plus Copper Observed” value is 96%.
Consider `O=C(N/N=C/c1cc(Cl)cc(Cl)c1O)c1ccccc1.O=C(N/N=C/c1cc(Cl)cc(Cl)c1O)c1ccccc1.[Cl-].[Cl-].[Mn+2]` [Compound 77], for which the “Complex % Inhn.” value in assay [1] is listed as 35%.
As to `O=C(N/N=C/c1cc(Cl)cc(Cl)c1O)c1ccccc1` [Compound 1], in assay [1] (setting [3]), the inhibition of growth at 0.05 µg/mL was 35%. In addition, in assay [2] (Test Concn. 0.05 μg/mL), the inhibition of growth at 0.05 µg/mL came out at 29% and the “% Inhn. Plus Copper Observed” value worked out at 91%.
Take `[Cl][Cu][Cl]` [CuCl2, Copper chloride, reference compound]: the “% Inhn. by copper chloride alone” value in assay [2] (CuCl2, 10 μM (so in the source), copper-plus vs copper-minus medium without test compound, across experiments) amounted to 7.0 ± 4.6%.
Regarding `O=C(N/N=C/c1ccc(Cl)c(Cl)c1O)c1ccccc1` [Compound 21], in assay [2] (Test Concn. 0.0125 μg/mL), the inhibition of growth at 0.0125 µg/mL came out at 39% and the “% Inhn. Plus Copper Observed” value is 96%.
With `O=C(N/N=C/c1cc(C(F)(F)F)cc(C(F)(F)F)c1O)c1ccc(Cl)cc1` [Compound 32], the inhibition of growth at 0.05 µg/mL in assay [1] (setting [3]) is 68%; in assay [2] (Test Concn. 0.05 μg/mL) it was 26%. The “% Inhn. Plus Copper Observed” value in assay [2] (Test Concn. 0.05 μg/mL) is 91%.
For `O=C(N/N=C/c1cc(Cl)cc(Br)c1O)c1ccc(Cl)cc1` [Compound 15], in assay [2] (Test Concn. 0.00625 μg/mL), the inhibition of growth at 0.00625 µg/mL was 15% and the “% Inhn. Plus Copper Observed” value was found to be 74%.
The like results for `O=C(N/N=C/c1c(Cl)ccc(Cl)c1O)c1ccc(Cl)cc1` [Compound 45] were, in that order, 33% and 78%.
With `O=C(N/N=C/c1cc(Cl)cc(Cl)c1O)c1ccccc1.[Cl-].[Cl-].[Cu+2]` [Compound 75], the “Complex % Inhn.” value in assay [1] is given as 97%.
Regarding `CC(=O)[O-].CC(=O)[O-].O=C(N/N=C/c1cc(Cl)cc(Cl)c1O)c1ccccc1.[Cu+2]` [Compound 72], the “Complex % Inhn.” value in assay [1] is listed as 98%.
Consider `O=C(N/N=C/c1cc(Cl)cc(Br)c1O)c1ccccc1O` [Compound 18], for which, in assay [2] (Test Concn. 0.0125 μg/mL), the inhibition of growth at 0.0125 µg/mL stood at 47% and the “% Inhn. Plus Copper Observed” value is 86%.
Take `C/C(=N\NC(=O)c1ccccc1)c1cc(Cl)cc(Cl)c1O` [Compound 6]: the inhibition of growth at 0.025 µg/mL in assay [1] (Synechocystis, Test Concn. 0.025 μg/ml, read-out: Hydrazone % Inhn.) is 70%. For the same compound, in assay [2] (Test Concn. 0.05 μg/mL), the inhibition of growth at 0.05 µg/mL worked out at 19% and the “% Inhn. Plus Copper Observed” value was 99%.
Regarding `O=C(N/N=C/c1cc(Cl)cc(Br)c1O)c1ccccc1` [Compound 14], in assay [2] (Test Concn. 0.05 μg/mL), the inhibition of growth at 0.05 µg/mL worked out at 50% and the “% Inhn. Plus Copper Observed” value worked out at 97%.
In the case of `O=C(NN=Cc1cc(Cl)cc(Cl)c1O)c1ccccc1.O=C(NN=Cc1cc(Cl)cc(Cl)c1O)c1ccccc1.[Cl-].[Cl-].[Zn+2]` [Compound 78], in assay [1], the “Complex % Inhn.” value was determined as 59%.
With `O=C(N/N=C/c1cc(Cl)cc(Cl)c1O)c1ccccc1.O=C(N/N=C/c1cc(Cl)cc(Cl)c1O)c1ccccc1.O=S(=O)([O-])[O-].[Cu+2]` [Compound 74], the “Complex % Inhn.” value in assay [1] was found to be 95%.
`O=C(N/N=C/c1cc(Cl)cc(C(F)(F)F)c1O)c1ccccc1` [Compound 27]: in assay [1] (setting [3]), the inhibition of growth at 0.05 µg/mL worked out at 41%. In assay [2] (Test Concn. 0.05 μg/mL), the inhibition of growth at 0.05 µg/mL is 31% and the “% Inhn. Plus Copper Observed” value was 95%.
For the compound `O=C(N/N=C/c1cccc(Cl)c1O)c1ccc(Cl)cc1` [Compound 52], the inhibition of growth at 0.05 µg/mL in assay [1] (setting [3]) is 45%. For the same compound, in assay [2] (Test Concn. 0.0125 μg/mL), the inhibition of growth at 0.0125 µg/mL amounted to 8% and the “% Inhn. Plus Copper Observed” value was found to be 90%.
Take `O=C(N/N=C/c1c(C(F)(F)F)ccc(Cl)c1O)c1ccc(Cl)cc1` [Compound 56]: in assay [2] (Test Concn. 0.0125 μg/mL), the inhibition of growth at 0.0125 µg/mL amounted to 28% and the “% Inhn. Plus Copper Observed” value stood at 75%.
With `CC(=O)[O-].CC(=O)[O-].O=C(N/N=C/c1cc(Cl)cc(Cl)c1O)c1ccccc1.O=C(N/N=C/c1cc(Cl)cc(Cl)c1O)c1ccccc1.[Cu+2]` [Compound 73], the “Complex % Inhn.” value in assay [1] was found to be 97%.
As for `C/C(=N\NC(=O)c1cccc(C)c1)c1cc(Cl)cc(Cl)c1O` [Compound 25, 3-methyl-benzoic acid [1-(3,5-dichloro-2-hydroxyphenyl)-ethylidene]-hydrazide], in assay [2] (Test Concn. 0.05 μg/mL), the inhibition of growth at 0.05 µg/mL came out at 18% and the “% Inhn. Plus Copper Observed” value turned out to be 92%.
Consider `Cc1ccccc1C(=O)N/N=C/c1cc(Cl)cc(Cl)c1O` [Compound 63], for which the inhibition of growth at 0.05 µg/mL in assay [1] (setting [3]) worked out at 23%; in assay [2] (Test Concn. 0.05 μg/mL) it was 37%. In assay [2] (Test Concn. 0.05 μg/mL), the “% Inhn. Plus Copper Observed” value came to 94%.
